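Step 1: Grow cells in 96-well plates. Step 2: Expose to compound for 48 hours at 5 concentrations. Step 3: Interpolate endpoints linearly; if unreached, use highest concentration. TGI: total growth inhibition.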
Experiments:
Experiment in all cases: NCI-60 cell line screen, 48 h
MDA-MB-435 = system: MDA-MB-435
SNB-75 CNS = system: SNB-75 CNS
BT-549 breast = system: BT-549 breast
TK-10 renal = system: TK-10 renal
HCT-15 colon = system: HCT-15 colon
NCI-H226 lung = system: NCI-H226 lung
MOLT-4 leukemia = system: MOLT-4 leukemia
SF-268 CNS = system: SF-268 CNS
COLO 205 colon = system: COLO 205 colon
HOP-92 NSCLC = system: HOP-92 NSCLC
NCI/ADR-RES ovarian = system: NCI/ADR-RES ovarian
MDA-N = system: MDA-N
SNB-19 CNS = system: SNB-19 CNS
OVCAR-5 ovarian = system: OVCAR-5 ovarian
SK-MEL-2 melanoma = system: SK-MEL-2 melanoma
RXF 393 renal = system: RXF 393 renal
SK-MEL-5 melanoma = system: SK-MEL-5 melanoma
DU-145 prostate = system: DU-145 prostate
CAKI-1 renal = system: CAKI-1 renal
MALME-3M melanoma = system: MALME-3M melanoma
LOX IMVI melanoma = system: LOX IMVI melanoma
OVCAR-4 ovarian = system: OVCAR-4 ovarian
MDA-MB-231 breast = system: MDA-MB-231 breast
IGROV1 ovarian = system: IGROV1 ovarian
SN12C renal = system: SN12C renal
HS 578T breast = system: HS 578T breast
SR leukemia = system: SR leukemia
A549 NSCLC = system: A549 NSCLC
HL-60(TB) leukemia = system: HL-60(TB) leukemia
M14 melanoma = system: M14 melanoma
SK-MEL-28 melanoma = system: SK-MEL-28 melanoma
SF-295 CNS = system: SF-295 CNS
HCC-2998 colon = system: HCC-2998 colon
SK-OV-3 ovarian = system: SK-OV-3 ovarian
EKVX NSCLC = system: EKVX NSCLC
CCRF-CEM leukemia = system: CCRF-CEM leukemia
UO-31 renal = system: UO-31 renal
HOP-62 NSCLC = system: HOP-62 NSCLC
786-0 renal = system: 786-0 renal
T-47D breast = system: T-47D breast
UACC-257 melanoma = system: UACC-257 melanoma
U251 CNS = system: U251 CNS
KM12 colon = system: KM12 colon
HT29 colon = system: HT29 colon
SW-620 colon = system: SW-620 colon
RPMI-8226 leukemia = system: RPMI-8226 leukemia
K-562 leukemia = system: K-562 leukemia
OVCAR-8 ovarian = system: OVCAR-8 ovarian
SF-539 CNS = system: SF-539 CNS
OVCAR-3 ovarian = system: OVCAR-3 ovarian
NCI-H23 lung = system: NCI-H23 lung
HCT-116 colon = system: HCT-116 colon
NCI-H460 lung = system: NCI-H460 lung
NCI-H522 lung = system: NCI-H522 lung
ACHN renal = system: ACHN renal
PC-3 prostate = system: PC-3 prostate
UACC-62 melanoma = system: UACC-62 melanoma
A498 renal = system: A498 renal
MCF7 breast = system: MCF7 breast

CCN(CC)S(=O)(=O)c1ccc2nc(NC(=O)OC)[nH]c2c1
TGI (MDA-MB-435): 36.8 µM
TGI (SNB-75 CNS): > 100 µM
TGI (BT-549 breast): > 100 µM
TGI (TK-10 renal): > 100 µM
TGI (HCT-15 colon): > 100 µM
TGI (NCI-H226 lung): > 100 µM
TGI (MOLT-4 leukemia): 61.7 µM
TGI (SF-268 CNS): > 100 µM
TGI (COLO 205 colon): > 100 µM
TGI (HOP-92 NSCLC): > 100 µM
TGI (NCI/ADR-RES ovarian): > 100 µM
TGI (MDA-N): 65.9 µM
TGI (SNB-19 CNS): > 100 µM
TGI (OVCAR-5 ovarian): > 100 µM
TGI (SK-MEL-2 melanoma): > 100 µM
TGI (RXF 393 renal): > 100 µM
TGI (SK-MEL-5 melanoma): > 100 µM
TGI (DU-145 prostate): > 100 µM
TGI (CAKI-1 renal): > 100 µM
TGI (MALME-3M melanoma): > 100 µM
TGI (LOX IMVI melanoma): > 100 µM
TGI (OVCAR-4 ovarian): > 100 µM
TGI (MDA-MB-231 breast): > 100 µM
TGI (IGROV1 ovarian): > 100 µM
TGI (SN12C renal): > 100 µM
TGI (HS 578T breast): > 100 µM
TGI (SR leukemia): 83.9 µM
TGI (A549 NSCLC): > 100 µM
TGI (HL-60(TB) leukemia): 63.4 µM
TGI (M14 melanoma): > 100 µM
TGI (SK-MEL-28 melanoma): > 100 µM
TGI (SF-295 CNS): > 100 µM
TGI (HCC-2998 colon): > 100 µM
TGI (SK-OV-3 ovarian): > 100 µM
TGI (EKVX NSCLC): > 100 µM
TGI (CCRF-CEM leukemia): > 100 µM
TGI (UO-31 renal): > 100 µM
TGI (HOP-62 NSCLC): > 100 µM
TGI (786-0 renal): > 100 µM
TGI (T-47D breast): > 100 µM
TGI (UACC-257 melanoma): > 100 µM
TGI (U251 CNS): > 100 µM
TGI (KM12 colon): > 100 µM
TGI (HT29 colon): > 100 µM
TGI (SW-620 colon): > 100 µM
TGI (RPMI-8226 leukemia): 47.1 µM
TGI (K-562 leukemia): > 100 µM
TGI (OVCAR-8 ovarian): > 100 µM
TGI (SF-539 CNS): 74.3 µM
TGI (OVCAR-3 ovarian): > 100 µM
TGI (NCI-H23 lung): > 100 µM
TGI (HCT-116 colon): > 100 µM
TGI (NCI-H460 lung): > 100 µM
TGI (NCI-H522 lung): > 100 µM

CC(=O)c1c(SCCN2CCCCCC2)n(-c2ccccc2)c(=S)n(-c2ccccc2)c1=O
TGI (MDA-MB-435): 25.5 µM
TGI (SNB-75 CNS): 32.8 µM
TGI (ACHN renal): 3.31 µM
TGI (BT-549 breast): 32.7 µM
TGI (TK-10 renal): 4.45 µM
TGI (HCT-15 colon): 33.7 µM
TGI (NCI-H226 lung): 61.3 µM
TGI (SF-268 CNS): 26.3 µM
TGI (COLO 205 colon): 3.67 µM
TGI (HOP-92 NSCLC): 20.1 µM
TGI (NCI/ADR-RES ovarian): > 100 µM
TGI (MDA-N): 20.3 µM
TGI (PC-3 prostate): 14.2 µM
TGI (SNB-19 CNS): > 100 µM
TGI (OVCAR-5 ovarian): > 69 µM
TGI (SK-MEL-2 melanoma): 43.2 µM
TGI (RXF 393 renal): 3.41 µM
TGI (SK-MEL-5 melanoma): 22.2 µM
TGI (DU-145 prostate): 5.18 µM
TGI (CAKI-1 renal): 8.26 µM
TGI (MALME-3M melanoma): 3.51 µM
TGI (LOX IMVI melanoma): 12.5 µM
TGI (OVCAR-4 ovarian): 79.3 µM
TGI (MDA-MB-231 breast): 28.1 µM
TGI (IGROV1 ovarian): 22.7 µM
TGI (SN12C renal): 19.5 µM
TGI (HS 578T breast): 64.1 µM
TGI (SR leukemia): 8.58 µM
TGI (A549 NSCLC): 15.2 µM
TGI (M14 melanoma): 4.9 µM
TGI (SK-MEL-28 melanoma): 23.4 µM
TGI (SF-295 CNS): > 100 µM
TGI (HCC-2998 colon): 14.6 µM
TGI (SK-OV-3 ovarian): > 100 µM
TGI (EKVX NSCLC): 40.4 µM
TGI (CCRF-CEM leukemia): 1.24 µM
TGI (HOP-62 NSCLC): > 56.4 µM
TGI (786-0 renal): 3.36 µM
TGI (T-47D breast): 7.36 µM
TGI (UACC-257 melanoma): 9.62 µM
TGI (U251 CNS): 32.5 µM
TGI (KM12 colon): > 54.1 µM
TGI (HT29 colon): 20.7 µM
TGI (SW-620 colon): 4.96 µM
TGI (UACC-62 melanoma): 21 µM
TGI (A498 renal): 28.7 µM
TGI (K-562 leukemia): 10.9 µM
TGI (OVCAR-8 ovarian): 24.4 µM
TGI (SF-539 CNS): 13.1 µM
TGI (OVCAR-3 ovarian): 12 µM
TGI (NCI-H23 lung): 38.2 µM
TGI (HCT-116 colon): 18.5 µM
TGI (NCI-H460 lung): > 54.4 µM
TGI (NCI-H522 lung): 2.95 µM

COC(=O)c1c(O)c2c(c3c1OC(C)(C)CC3)OC(C)(C)CC2
TGI (ACHN renal): 32.3 µM
TGI (BT-549 breast): 37.2 µM
TGI (HCT-15 colon): 35.5 µM
TGI (NCI-H226 lung): 35.9 µM
TGI (MOLT-4 leukemia): 56.1 µM
TGI (SF-268 CNS): 60.7 µM
TGI (COLO 205 colon): 28.2 µM
TGI (NCI/ADR-RES ovarian): 56.2 µM
TGI (MDA-N): 51.9 µM
TGI (PC-3 prostate): 35.7 µM
TGI (SNB-19 CNS): 34.9 µM
TGI (OVCAR-5 ovarian): 35.2 µM
TGI (SK-MEL-5 melanoma): 28.2 µM
TGI (DU-145 prostate): 74.7 µM
TGI (CAKI-1 renal): 53.9 µM
TGI (MALME-3M melanoma): 20.9 µM
TGI (OVCAR-4 ovarian): 97.7 µM
TGI (MDA-MB-231 breast): 30 µM
TGI (IGROV1 ovarian): 42.8 µM
TGI (MCF7 breast): 33.1 µM
TGI (SN12C renal): 32.6 µM
TGI (HS 578T breast): 47.2 µM
TGI (A549 NSCLC): 42.7 µM
TGI (HL-60(TB) leukemia): 40.3 µM
TGI (M14 melanoma): 41 µM
TGI (SK-MEL-28 melanoma): 68.8 µM
TGI (SF-295 CNS): 32.2 µM
TGI (HCC-2998 colon): 31.2 µM
TGI (SK-OV-3 ovarian): 77.1 µM
TGI (EKVX NSCLC): 45.8 µM
TGI (CCRF-CEM leukemia): 55.6 µM
TGI (UO-31 renal): 37.4 µM
TGI (HOP-62 NSCLC): 42.7 µM
TGI (786-0 renal): 31.1 µM
TGI (T-47D breast): 39.5 µM
TGI (UACC-257 melanoma): 50.8 µM
TGI (U251 CNS): 29.6 µM
TGI (KM12 colon): 31.6 µM
TGI (HT29 colon): 31.4 µM
TGI (SW-620 colon): 32.1 µM
TGI (UACC-62 melanoma): 40 µM
TGI (A498 renal): 34.4 µM
TGI (K-562 leukemia): 69.8 µM
TGI (OVCAR-8 ovarian): 33.3 µM
TGI (SF-539 CNS): 36 µM
TGI (OVCAR-3 ovarian): 36.3 µM
TGI (NCI-H23 lung): 43.4 µM
TGI (HCT-116 colon): 30.4 µM
TGI (NCI-H460 lung): 50.6 µM
TGI (NCI-H522 lung): 34.2 µM

From PubChem BioAssay (NCI)
